From article PMC8698302, “An Antibacterial Peptide with High Resistance to Trypsin Obtained by Substituting D-Amino Acids for Trypsin Cleavage Sites” (Antibiotics, 2021) come the findings set out here.

Common to all, as to assay: Antimicrobial susceptibility test of clinical isolated strains
Common to all, as to assay type: cell-based

Experiment [1] concerns Escherichia coli w136. The settings on record: for Antimicrobial susceptibility test result (category): according to CLSI 2015 guidelines. The source says:
(§1) Table S1. Antimicrobial susceptibility test of clinical isolated strains used in this study (MIC, μg/mL).
(§2) "I" stands for intermediate, "S" stands for susceptible. […]

Experiment [2] concerns Escherichia coli w124. The conditions noted are these: for Antimicrobial susceptibility test result (category): according to CLSI 2015 guidelines.
From the text: as §1, §2

The subject of experiment [3] is Shigella flexneri QY1. The settings on record: for Antimicrobial susceptibility test result (category): according to CLSI 2015 guidelines. Here is the method:
as §1
(§3) 1Antimicrobial susceptibility test results were determined according to CLSI 2015 guidelines, where "R" stands for drug resistance,
as §2

Experiment [4] has as its system Escherichia coli w122. The settings on record: for Antimicrobial susceptibility test result (category): according to CLSI 2015 guidelines. Here is the method:
as §1, §3, §2

In experiment [5] the test system is Escherichia coli w123. The settings on record: for Antimicrobial susceptibility test result (category): according to CLSI 2015 guidelines. Here is the method:
as §1, §3, §2

The test system of experiment [6] is Escherichia coli SN5. The conditions noted are these: for Antimicrobial susceptibility test result (category): according to CLSI 2015 guidelines. Here is the method: as §1, §3, §2
Experiment [7] has as its system Methicillin-resistant Staphylococcus aureus HP. The settings on record: for MIC: Staphylococcus aureus, antibiotic susceptibility, CLSI 2015 guidelines; for Antimicrobial susceptibility test result (category): according to CLSI 2015 guidelines. Here is the method:
as §1, §3, §2

In experiment [8] the test system is Escherichia coli QY. The conditions noted are these: for Antimicrobial susceptibility test result (category): according to CLSI 2015 guidelines. Here is the method:
as §1, §3, §2

For experiment [9], the system named is Escherichia coli S1N1. The settings on record: for Antimicrobial susceptibility test result (category): according to CLSI 2015 guidelines. Here is the method:
as §1, §3, §2

The mark [10] stands for this setting: Escherichia coli, W136, antibiotic susceptibility, CLSI 2015 guidelines, read-out: MIC.
The mark [11] stands for this setting: Escherichia coli, W124, antibiotic susceptibility, CLSI 2015 guidelines, read-out: MIC.
Setting [12] is: Escherichia coli, W122, antibiotic susceptibility, CLSI 2015 guidelines, read-out: MIC.
The mark [13] stands for this setting: Escherichia coli, W123, antibiotic susceptibility, CLSI 2015 guidelines, read-out: MIC.
Setting [14] is: Escherichia coli, SN5, antibiotic susceptibility, CLSI 2015 guidelines, read-out: MIC.
[15] abbreviates: Escherichia coli, antibiotic susceptibility, CLSI 2015 guidelines, read-out: MIC.
The mark [16] stands for this setting: Escherichia coli, S1N1, antibiotic susceptibility, CLSI 2015 guidelines, read-out: MIC.
[17] abbreviates: antibiotic susceptibility, CLSI 2015 guidelines.

≈ marks a conversion by molar mass, not a printed value. Like-named read-outs stand apart in the source and are kept apart here.

Regarding `CC[C@H]1OC(=O)[C@H](C)[C@@H](O[C@H]2C[C@@](C)(OC)[C@@H](O)[C@H](C)O2)[C@H](C)[C@@H](O[C@@H]2O[C@H](C)C[C@H](N(C)C)[C@H]2O)[C@](C)(O)C[C@@H](C)CN(C)[C@H](C)[C@@H](O)[C@]1(C)O` [Azithromycin], the MIC (usually the lowest concentration found to suppress growth) was 2 µg/mL (≈ 2.67 µM) in [1] (setting [10]); 4 µg/mL (≈ 5.34 µM) in [2] (setting [11]); 64 µg/mL (≈ 85.4 µM) in experiment [3] (Shigella flexneri, QY1); 4 µg/mL (≈ 5.34 µM) in experiment [4] (setting [12]); 4 µg/mL (≈ 5.34 µM) in [5] (setting [13]); 4 µg/mL (≈ 5.34 µM) in experiment [6] (setting [14]). Besides, the MIC in experiment [7] stood at 1 µg/mL (≈ 1.34 µM); in experiment [8] (setting [15]) it was 8 µg/mL (≈ 10.7 µM); in [9] (setting [16]), 4 µg/mL (≈ 5.34 µM). In addition, the “Antimicrobial susceptibility test result (category)” value in experiment [1] is listed as “S”; in experiment [2], “S”; in [3], “R”; in experiment [4], “S”; in experiment [5], “S”; in experiment [6] it was “S”. The “Antimicrobial susceptibility test result (category)” value in experiment [7], in [8] and in [9] was “S” each time.

`CO/N=C(\C(=O)N[C@@H]1C(=O)N2C(C(=O)O)=C(CSc3nc(=O)c(=O)[nH]n3C)CS[C@H]12)c1csc(N)n1` [Ceftriaxone]: the MIC in [1] (setting [10]) was found to be 0.06 µg/mL (≈ 0.108 µM); in experiment [2] (setting [11]), 4 µg/mL (≈ 7.21 µM); in [3] (Shigella flexneri, QY1) it was 4 µg/mL (≈ 7.21 µM); in [4] (setting [12]) it was 32 µg/mL (≈ 57.7 µM); in [5] (setting [13]) it was 32 µg/mL (≈ 57.7 µM); in [6] (setting [14]) it was 16 µg/mL (≈ 28.9 µM). Besides, the MIC amounted to 64 µg/mL (≈ 115 µM) in experiment [8] (setting [15]) and 16 µg/mL (≈ 28.9 µM) in experiment [9] (setting [16]). Also, the “Antimicrobial susceptibility test result (category)” value is listed as “S” in [1]; “R” in experiment [2]; “R” in experiment [3]; “R” in experiment [4]; “R” in experiment [5]; “R” in experiment [6]. The “Antimicrobial susceptibility test result (category)” value in experiment [8] and in experiment [9] was “R” in each case.

On to `CS(=O)(=O)c1ccc([C@@H](O)[C@@H](CF)NC(=O)C(Cl)Cl)cc1` [Florfenicol], for which the MIC in experiment [1] (setting [10]) came to 128 µg/mL (≈ 357 µM); in experiment [2] (setting [11]), 128 µg/mL (≈ 357 µM); in experiment [3] (Shigella flexneri, QY1), 2 µg/mL (≈ 5.58 µM); in experiment [4] (setting [12]), 128 µg/mL (≈ 357 µM); in experiment [5] (setting [13]) it was 128 µg/mL (≈ 357 µM); in [6] (setting [14]), 4 µg/mL (≈ 11.2 µM). Moreover, the MIC was 128 µg/mL (≈ 357 µM) in experiment [8] (setting [15]) and 2 µg/mL (≈ 5.58 µM) in experiment [9] (setting [16]). Further, the “Antimicrobial susceptibility test result (category)” value in experiment [1] is listed as “R”; in [2], “R”; in experiment [3], “S”; in experiment [4], “R”; in experiment [5], “R”; in [6] it was “S”. Further, the “Antimicrobial susceptibility test result (category)” value is reported as “R” in experiment [8] and “S” in [9].

Regarding `CNC(C)C1CCC(N)C(OC2C(N)CC(N)C(OC3OCC(C)(O)C(NC)C3O)C2O)O1` (stereo not shown) [Gentamicin], the MIC is 8 µg/mL (≈ 16.8 µM) in experiment [1] (setting [10]); 8 µg/mL (≈ 16.8 µM) in experiment [2] (setting [11]); 1 µg/mL (≈ 2.09 µM) in [3] (Shigella flexneri, QY1); 1 µg/mL (≈ 2.09 µM) in [4] (setting [12]); 1 µg/mL (≈ 2.09 µM) in [5] (setting [13]); under 0.03 µg/mL in experiment [6] (setting [14]). Besides, the figures for the MIC in experiment [7], in experiment [8] (setting [15]) and in experiment [9] (setting [16]) were 16 µg/mL (≈ 33.5 µM), over 512 µg/mL and under 0.03 µg/mL, respectively. Further, the “Antimicrobial susceptibility test result (category)” value in [1] is “I”; in [2] it was “I”; in experiment [3], “S”; in [4] it was “S”; in [5], “S”; in experiment [6] it was “S”. Also, the “Antimicrobial susceptibility test result (category)” value is “R” in experiment [7], “R” in experiment [8] and “S” in experiment [9].

On to `CO[C@H]1/C=C/O[C@@]2(C)Oc3c(C)c(O)c4c(O)c(c(/C=N/N5CCN(C)CC5)c(O)c4c3C2=O)NC(=O)/C(C)=C\C=C\[C@H](C)[C@H](O)[C@@H](C)[C@@H](O)[C@@H](C)[C@H](OC(C)=O)[C@@H]1C` [Rifampicin], for which the MIC worked out at 64 µg/mL (≈ 77.8 µM) in [1] (setting [10]); 4 µg/mL (≈ 4.86 µM) in experiment [2] (setting [11]); 2 µg/mL (≈ 2.43 µM) in [3] (Shigella flexneri, QY1); 4 µg/mL (≈ 4.86 µM) in experiment [4] (setting [12]); 4 µg/mL (≈ 4.86 µM) in [5] (setting [13]); 1 µg/mL (≈ 1.22 µM) in [6] (setting [14]). In addition, the MIC in [7] was 8 µg/mL (≈ 9.72 µM); in [8] (setting [15]) it was 4 µg/mL (≈ 4.86 µM); in experiment [9] (setting [16]) it was 2 µg/mL (≈ 2.43 µM). The “Antimicrobial susceptibility test result (category)” value is “R” in experiment [1]; “S” in experiment [2]; “S” in [3]; “S” in [4]; “S” in experiment [5]; “S” in experiment [6]. For the same compound, the “Antimicrobial susceptibility test result (category)” value was “R” in experiment [7], “S” in experiment [8] and “S” in [9].

Regarding `Cc1noc(NS(=O)(=O)c2ccc(N)cc2)c1C` [Sulfafurazole], the MIC was 512 µg/mL (≈ 1920 µM) in [1] (Escherichia coli, W136); 512 µg/mL (≈ 1920 µM) in [2] (Escherichia coli, W124); over 512 µg/mL in experiment [3] (Shigella flexneri, QY1); 512 µg/mL (≈ 1920 µM) in [4] (Escherichia coli, W122); 512 µg/mL (≈ 1920 µM) in [5] (Escherichia coli, W123); over 512 µg/mL in [6] (Escherichia coli, SN5). For the same compound, the MIC in [8] (Escherichia coli) is 512 µg/mL (≈ 1920 µM); in [9] (Escherichia coli, S1N1), 512 µg/mL (≈ 1920 µM). Moreover, the “Antimicrobial susceptibility test result (category)” value in [1], in experiment [2], in [3], in experiment [4], in experiment [5] and in experiment [6] was “R” throughout. For the same compound, the “Antimicrobial susceptibility test result (category)” value in experiment [8] and in experiment [9] was “R” each time.

On to `CN(C)[C@@H]1C(O)=C(C(N)=O)C(=O)[C@@]2(O)C(O)=C3C(=O)c4c(O)cccc4[C@@](C)(O)[C@H]3C[C@@H]12` [Tetracycline], for which the “Antimicrobial susceptibility test result (category)” value in experiment [1], in experiment [2], in experiment [3], in experiment [4], in experiment [5] and in experiment [6] was “R” each time. Also, the “Antimicrobial susceptibility test result (category)” value in experiment [7], in [8] and in experiment [9] was “R” throughout. The MIC in [3] (Shigella flexneri, QY1) was found to be 32 µg/mL (≈ 72 µM); in experiment [4] (setting [12]), 32 µg/mL (≈ 72 µM); in experiment [5] (setting [13]) it was 32 µg/mL (≈ 72 µM); in experiment [6] (setting [14]), 64 µg/mL (≈ 144 µM); in experiment [7], 32 µg/mL (≈ 72 µM); in experiment [9] (setting [16]), 32 µg/mL (≈ 72 µM).

Consider `COc1cccc(OC)c1C(=O)N[C@@H]1C(=O)N2[C@@H]1SC(C)(C)[C@@H]2C(=O)O` [methicillin], for which the MIC stood at 32 µg/mL (≈ 84.1 µM) in experiment [3] (Shigella flexneri, QY1); 64 µg/mL (≈ 168 µM) in [4] (setting [12]); 128 µg/mL (≈ 336 µM) in [5] (setting [13]); 64 µg/mL (≈ 168 µM) in [6] (setting [14]); 128 µg/mL (≈ 336 µM) in [7]; 128 µg/mL (≈ 336 µM) in experiment [9] (setting [16]). Moreover, the “Antimicrobial susceptibility test result (category)” value in experiment [3], in experiment [4], in [5], in experiment [6], in [7] and in experiment [9] was “R” throughout.

For the compound PolymixinB, the “Antimicrobial susceptibility test result (category)” value was “R” in experiment [1]; “S” in [2]; “S” in experiment [3]; “S” in experiment [4]; “S” in experiment [5]; “S” in experiment [6]. The “Antimicrobial susceptibility test result (category)” value in experiment [8] and in [9] was “S” in each case. Further, the MIC was 8 µg/mL in experiment [1] (setting [17]); 0.5 µg/mL in [2] (setting [17]); 0.5 µg/mL in experiment [3] (setting [17]); 0.5 µg/mL in [4] (setting [17]); 0.5 µg/mL in experiment [5] (setting [17]); 0.5 µg/mL in [6] (setting [17]). The MIC in experiment [8] (setting [17]) amounted to 1 µg/mL; in experiment [9] (setting [17]) it was 0.5 µg/mL.
